Source: the Bradley open melting point set (2014)
Several values for one entry are separate records, joined by “and”; a condition that tells them apart may be missing. Equal entries are not always repeated. Structures can show the parent of a compound that is named as a salt.

Going from `CCC(=O)C(C[C@H](C)N(C)C)(c1ccccc1)c1ccccc1` [methadone] to `NC(=O)CS(=O)C(c1ccccc1)c1ccccc1` (stereo not drawn) [modafinil], the melting point rises from 102 °C to 164 °C.

Going from `CS(=O)(=O)O` [methanesulfonic acid] to `COC(=O)c1ccccc1S(=O)(=O)Cl` [methyl 2-(chlorosulfonyl)benzoate], the melting point rises from 20 °C to 62 °C.

Going from `COC(=O)C1Cc2ccccc2C(=O)O1` (stereo not drawn) [methyl 1-oxo-3,4-dihydro-1H-isochromene-3-carboxylate] to `COC(=O)c1ccccc1` [methyl benzoate], the melting point falls from 90 °C to -12 °C.

First: COC(=O)c1ccccc1NC(=O)c1ccccc1 [methyl 2-(benzoylamino)benzoate]
Second: COC(=O)c1ccccc1 [methyl_benzoate]
The melting point of the first is higher: 99 °C for the first, -12 °C for the second.

First: COC(=O)c1cc(Br)ccc1NC(C)=O [methyl 2-acetamido-5-bromobenzoate]
Second: COC(=O)c1cccc(Br)c1 [methyl_3-bromobenzoate]
The melting point of the first is higher: 134 °C for the first, 33 °C for the second.

First: COC(=O)C1(C)C(C(C)=O)=Nc2ccccc21 (stereo not drawn) [methyl 2-acetyl-3-methyl-3H-indole-3-carboxylate]
Second: Cc1ccccc1C(=O)O [o-toluic acid]
The melting point of the first is lower: 103 °C for the first, 105 °C for the second.

Compared with `COC(=O)c1cc(Cl)ccc1N` [methyl 2-amino-5-chlorobenzoate], `COC(=O)c1cc(F)ccc1N` [methyl 2-amino-5-fluorobenzoate] is lower in melting point: 69 °C for the first, 23 °C for the second.

First: COC(=O)c1ccc([N+](=O)[O-])cc1Cl [methyl 2-chloro-4-nitrobenzoate]
Second: COC(=O)c1cc(Cl)ccc1[N+](=O)[O-] [methyl 5-chloro-2-nitrobenzoate]
The melting point of the first is higher: 76 °C for the first, 49 °C for the second.

Compared with `COC(=O)c1cc(OC)c(OC)c(OC)c1` [methyl 3,4,5-trimethoxybenzoate], `COC(=O)c1cc(OC)c(OC)c(OC)c1` [methyl_3,4,5-trimethoxybenzoate] is lower in melting point: 85 °C for the first, 84 °C for the second.

Compared with `COC(=O)c1ccc(N)c(N)c1` [methyl 3,4-diaminobenzoate], `COC(=O)c1ccc(N)cc1` [methyl 4-aminobenzoate] [listing 1 of 2 here] is higher in melting point: 107 °C for the first, 112 °C for the second.

First: COC(=O)Cc1ccc(Cl)c(Cl)c1 [methyl 3,4-dichlorophenylacetate]
Second: COC(=O)c1cccc(Cl)c1 [methyl 3-chlorobenzoate]
The melting point of the first is higher: 29 °C for the first, 21 °C for the second.

Compared with `COC(=O)c1cc(OC)c(O)c(OC)c1` [methyl 3,5-dimethoxy-4-hydroxybenzoate], `COC(=O)c1ccc(OC)c(OC)c1` [methyl_3,4-dimethoxybenzoate] is lower in melting point: 106 °C for the first, 60 °C for the second.

Going from `COC(=O)n1nc(C)cc1C` [methyl 3,5-dimethyl-1H-pyrazole-1-carboxylate] to `COC(=O)n1ccc(C)n1` [methyl 3-methyl-1H-pyrazole-1-carboxylate], the melting point falls from 52 °C to 33 °C.

Going from `COC(=O)c1sc(-c2ccccc2)cc1N` [methyl 3-amino-5-phenylthiophene-2-carboxylate] to `COC(=O)c1cccc(O)c1` [methyl_3-hydroxybenzoate], the melting point falls from 147 °C to 74 °C.

First: COC(=O)c1sccc1Cl [methyl 3-chlorothiophene-2-carboxylate]
Second: COC(=O)c1sccc1O [methyl 3-hydroxythiophene-2-carboxylate]
The melting point of the first is lower: 38 °C for the first, 46 °C for the second.

Compared with `COC(=O)c1ccc(OC)c(F)c1` [methyl 3-fluoro-4-methoxybenzoate], `COC(=O)c1ccc(OC)cc1` [methyl 4-methoxybenzoate] is lower in melting point: 71 °C for the first, 50 °C for the second.

Compared with `COC(=O)c1cccc([N+](=O)[O-])c1` [methyl 3-nitrobenzoate], `COC(=O)c1ccc([N+](=O)[O-])cc1` [methyl_4-nitrobenzoate] is higher in melting point: 79 °C for the first, 96 °C for the second.

First: COC(=O)c1sc(Br)c(Br)c1O [methyl 4,5-dibromo-3-hydroxythiophene-2-carboxylate]
Second: COC(=O)c1cncc(Br)c1 [methyl 5-bromonicotinate]
The melting point of the first is higher: 127 °C for the first, 97 °C for the second.

Compared with `COCC(CCC(=O)OC)N1CC=CC1` (stereo not drawn) [methyl 4-(2,5-dihydro-1H-pyrrol-1-yl)-5-methoxypentanoate], `COC(=O)CC#N` [methyl cyanoacetate] is lower in melting point: 145 °C for the first, -23 °C for the second.

First: COC(=O)c1ccc(C(C)=O)cc1 [methyl 4-acetylbenzoate]
Second: COC(=O)c1ccc(O)cc1 [methyl p-hydroxybenzoate]
The melting point of the first is lower: 86 °C for the first, 131 °C for the second.

Going from `COC(=O)c1ccc(N)cc1` [methyl 4-aminobenzoate] [listing 2 of 2 here] to `COC(=O)c1ccc(O)cc1` [methyl-p-hydroxybenzoate], the melting point rises from 114 °C to 131 °C.

Compared with `COC(=O)c1cc2c(OC)cccc2[nH]1` [methyl 4-methoxyindole-2-carboxylate], `COC(=O)c1ccc(OC)cc1` [methyl_4-methoxybenzoate] is lower in melting point: 141 °C for the first, 50 °C for the second.

Compared with `COC(=O)CCC(C)C1CCC2C3C(O)C(O)C4CCCCC4(C)C3CCC12C` (stereo not drawn) [methyl 6,7-dihydroxycholan-24-oate], `O=C4\C=C3/[C@]([C@H]2CC[C@]1([C@@H](CC[C@@]1(O)C)[C@@H]2CC3)C)(C)CC4` [methyltestosterone] is higher in melting point: 105 °C for the first, 163 °C for the second.

Compared with `COC(=O)c1ccc(N)nc1` [methyl 6-aminonicotinate], `COC(=O)c1ccc(N)cc1` [methyl p-aminobenzoate] is lower in melting point: 155 °C for the first, 114 °C for the second.

First: COC(=O)c1ccc2cc(Br)ccc2c1 [methyl 6-bromo-2-naphthoate]
Second: COC(=O)c1ccc(Br)cc1 [methyl_4-bromobenzoate]
The melting point of the first is higher: 122 °C for the first, 81 °C for the second.

Going from `COC(=O)N/C=C/c1ccccc1[N+](=O)[O-]` [methyl [(E)-2-(2-nitrophenyl)ethenyl]carbamate] to `COc1ccccc1[N+](=O)[O-]` [o-nitroanisole], the melting point falls from 147 °C to 10 °C.

Compared with `COC(=O)NN` [methyl carbazate], `COC(=O)CC(N)=O` [methyl malonamate] is lower in melting point: 72 °C for the first, 39 °C for the second.

Going from `COC=O` [methyl formate] to `CNC=O` [n-methylformamide], the melting point rises from -100 °C to -40 °C.

Going from `COC(=O)c1ccncc1` [methyl isonicotinate] to `COC(=O)c1ccc(O)cc1` [methyl_4-hydroxybenzoate], the melting point rises from 8 °C to 128 °C.

Going from `CCCSC` [methyl n-propyl sulfide] to `CCc1ccccc1CC` [o-diethylbenzene], the melting point rises from -113 °C to -31 °C.

First: CN(C)c1ccc(/N=N/c2ccccc2C(=O)O)cc1 [methyl red]
Second: CN(C)c1ccccc1 [n,n-dimethylaniline]
The melting point of the first is higher: 181 °C for the first, 3 °C for the second.

Going from `C=CC(=O)OC` [methyl_acrylate] to `COC(=O)c1ccc(O)cc1` [methylparaben], the melting point rises from -75 °C to 131 °C.

Going from `COC(=O)c1ccc(CC#N)cc1` [methyl_p-cyanomethyl_benzoate] to `N#CCc1ccccc1C(=O)O` [o-cyanomethyl_benzoic_acid], the melting point rises from 64 °C to 115 °C.

Going from `O=C(S)CCCC(=O)S` [methylenebis(thioacetic acid)] to `CC(=O)Oc1ccccc1C(N)=O` [o-acetoxybenzamide], the melting point rises from 128 °C to 138 °C.

Going from `C[Si](Cl)(Cl)Cl` [methyltrichlorosilane] to `Clc1ccccc1Cl` [o-dichlorobenzene], the melting point rises from -78 °C to -17 °C.

Going from `CCC1(CC)C(=O)NCC(C)C1=O` (stereo not drawn) [methyprylon] to `CO[C@@]12[C@H](COC(N)=O)C3=C(C(=O)C(C)=C(N)C3=O)N1C[C@@H]1N[C@@H]12` [mitomycin c], the melting point rises from 75.5 °C to 360 °C.

Compared with `Cc1sc2ccccc2c1CC1=NCCN1` [metizoline], `Cc1ccccc1Cl` [o-chlorotoluene] is lower in melting point: 156 °C for the first, -35 °C for the second.

Compared with `CCN(CC)CCNC(=O)c1cc(Cl)c(N)cc1OC` [metoclopramide], `COc1ccc(NC(=O)N(C)C)cc1Cl` [metoxuron] is lower in melting point: 147 °C for the first, 127 °C for the second.

First: Cc1ccc(C2(O)CCN(CCCC(=O)c3ccc(F)cc3)CC2)cc1 [moperone]
Second: Cc1c(CN2CCOC(c3ccccc3)C2C)c(=O)n(-c2ccccc2)n1C (stereo not drawn) [morazone]
The melting point of the first is lower: 118 °C for the first, 149 °C for the second.

First: O[C@H]1[C@H](O)[C@@H](O)[C@H](O)[C@@H](O)[C@H]1O [myo-inositol]
Second: NC(=O)c1ccccc1O [o-hydroxybenzamide]
The melting point of the first is higher: 226 °C for the first, 142 °C for the second.

Compared with `O=C1CCC(=O)N1Br` [n-bromosuccinimide], `CCn1cc(C(=O)O)c(=O)c2ccc(C)nc21` [nalidixic acid] [listing 1 of 2 here] is higher in melting point: 180 °C for the first, 229 °C for the second.

First: CCNc1ccccc1 [n-ethylaniline]
Second: Nc1ccccc1CO [o-amino_benzyl_alcohol]
The melting point of the first is lower: -63 °C for the first, 83 °C for the second.

First: CCn1cc(C(=O)O)c(=O)c2ccc(C)nc21 [nalidixic acid] [listing 2 of 2 here]
Second: CC(=O)Oc1ccccc1C(=O)O [o-acetylsalicylic acid]
The melting point of the first is higher: 230 °C for the first, 138 °C for the second.

First: c1ccc2cc3cc4ccccc4cc3cc2c1 [naphthacene]
Second: OCc1ccccc1-c1ccccc1 [o-phenylbenzyl_alcohol]
The melting point of the first is higher: 357 °C for the first, 50 °C for the second.

First: NC(=O)c1cccc2ccccc12 [naphthalene-1-carboxamide]
Second: NC(=O)c1ccccc1Cc1ccccc1 [o-benzylbenzamide]
The melting point of the first is higher: 208 °C for the first, 165 °C for the second.

First: COc1ccc2cc(C(C)CO)ccc2c1 (stereo not drawn) [naproxol]
Second: O=C(O)c1ccccc1CO [o-hydroxymethyl_benzoic_acid]
The melting point of the first is lower: 87 °C for the first, 126 °C for the second.

Going from `O=C(O)c1cccnc1` [nicotinic acid] [listing 1 of 2 here] to `O=Cc1ccccc1Cl` [o-chlorobenzaldehyde], the melting point falls from 237 °C to 11 °C.

Compared with `C1=CC2CCC1C2` [norbornene], `Nc1ccccc1Br` [o-bromoaniline] is lower in melting point: 46 °C for the first, 30 °C for the second.

Compared with `O=[N+]([O-])c1ccccc1Br` [o-bromonitrobenzene], `N#Cc1ccccc1[N+](=O)[O-]` [o-nitrobenzonitrile] is higher in melting point: 43 °C for the first, 109 °C for the second.

Work on `Brc1ccccc1Br` [o-dibromobenzene] yielded a melting point of 7 °C.

In the case of `CO` [methanol], the melting point is reported as -98 °C (6×) and -97.5 °C.
In the case of `Cn1cc[nH]c1=S` [methimazole], the melting point is reported as 146 °C (4×) and 147 °C.
With `COC(=O)c1ccc(O)cc1` [methyl 4-hydroxybenzoate] the melting point was 131 °C and 127 °C.
With `O=C(O)c1cccnc1` [nicotinic acid] [listing 2 of 2 here] the melting point was 237 °C (2×) and 238 °C.
